Laboratory results published in the NIST ThermoML archive (doi:10.1016/j.fluid.2017.12.011).
± gives the expanded uncertainty stated by the source.

How the values were obtained:
[1] = Liquid, Ebulliometric method (Recirculating still)
[2] = Boiling temperature at pressure P; conditions: Liquid, Ebulliometric method (Recirculating still)

Cc1cccc(O)c1 [3-methylphenol]
Conditions | Boiling temperature at pressure P [°C] | vapor or sublimation pressure [kPa]
[1], 422.16 K | – | 20 ± 0.2
[1], 422.28 K | – | 20 ± 0.2
[2], 9.29 kPa | 129.09 ± 0.46 | –
[2], 11.93 kPa | 135.40 ± 0.41 | –
[2], 14.57 kPa | 140.24 ± 0.37 | –
[2], 16.68 kPa | 144.32 ± 0.34 | –
[2], 18.79 kPa | 147.39 ± 0.29 | –
[2], 20 kPa | 149.01 ± 0.29 | –
[2], 20.91 kPa | 150.40 ± 0.26 | –
[2], 23.02 kPa | 152.89 ± 0.25 | –
[2], 25.13 kPa | 155.41 ± 0.25 | –

Cc1ccccc1O [2-methylphenol]
Conditions | Boiling temperature at pressure P [°C] | vapor or sublimation pressure [kPa]
[1], 411.26 K | – | 20 ± 0.2
[2], 20 kPa | 138.11 ± 0.17 | –

Cc1cccc(C)c1O [2,6-dimethylphenol]
Conditions | Boiling temperature at pressure P [°C] | vapor or sublimation pressure [kPa]
[1], 418.11 K | – | 20 ± 0.2
[2], 6.7 kPa | 116.91 ± 0.54 | –
[2], 8.87 kPa | 122.99 ± 0.52 | –
[2], 10.89 kPa | 128.28 ± 0.47 | –
[2], 12.74 kPa | 132.49 ± 0.41 | –
[2], 14.98 kPa | 136.82 ± 0.37 | –
[2], 16.8 kPa | 140.18 ± 0.34 | –
[2], 18.91 kPa | 143.50 ± 0.3 | –
[2], 20 kPa | 144.96 ± 0.27 | –
[2], 21.02 kPa | 146.28 ± 0.28 | –
[2], 22.83 kPa | 148.86 ± 0.29 | –
[2], 33.02 kPa | 163.40 ± 0.28 | –
[2], 35.64 kPa | 165.8 ± 0.2 | –
